# Laboratory results taken from patent US8153397B2 (priority 1993, dated 2012).
# Entries after “also recorded” stand apart in the source; their conditions may differ.
# Molecular target: BoNT/A LC (Clostridium botulinum, UniProt P0DPI0)
# Type: biochemical
# Chain of BoNT/A LC (P0DPI0 3-448, added parts left off): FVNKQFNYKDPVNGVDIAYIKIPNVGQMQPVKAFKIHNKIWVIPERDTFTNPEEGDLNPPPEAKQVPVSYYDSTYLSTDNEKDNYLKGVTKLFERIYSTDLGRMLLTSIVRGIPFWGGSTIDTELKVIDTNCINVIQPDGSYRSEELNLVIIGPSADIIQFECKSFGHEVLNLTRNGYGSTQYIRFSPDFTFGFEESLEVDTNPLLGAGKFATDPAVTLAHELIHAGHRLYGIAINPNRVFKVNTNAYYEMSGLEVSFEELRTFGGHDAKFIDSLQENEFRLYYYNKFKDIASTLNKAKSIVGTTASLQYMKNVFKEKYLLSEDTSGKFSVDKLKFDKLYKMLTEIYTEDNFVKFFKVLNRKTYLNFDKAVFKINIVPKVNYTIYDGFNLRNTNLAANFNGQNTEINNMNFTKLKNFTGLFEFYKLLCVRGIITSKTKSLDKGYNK
row,SMILES,effect on truncation and fragmentation of the LC
1,O=C(O)CN(CCN(CC(=O)O)CC(=O)O)CC(=O)O [EDTA],failed to protect; also recorded: little effect on proteolysis
2,c1ccc(CN(CCN(Cc2ccccn2)Cc2ccccn2)Cc2ccccn2)nc1 [TPEN],largely protected; also recorded: significantly reduced the rate of conversion of IA to IB
